The values below are quoted from earlier work in article PMC8177775 (Cancer Science, 2021).

Where two headings read alike, the source gives them in different places.

The test system of series [1] is six human cancer cell lines. To be noted: cited from earlier work.
For series [2], the system named is advanced solid tumors or lymphomas. To be noted: cited from earlier work.
In series [3] the test system is human osteosarcoma xenografts. The note with it: human osteosarcoma xenografts in nude mice; cited from earlier work. Background: Xenograft models place foreign cells or tissue in a host animal.

With `CC1(C)CCC2(CC1)N[C@@H](C(=O)N[C@@H]1CC[C@@H](C(N)=O)OC1)[C@H](c1ccnc(Cl)c1F)[C@]21C(=O)Nc2cc(Cl)ccc21` [milademetan, Milademetan], the “Growth of cancer cells harboring wild-type p53” value in series [1] is “inhibits the growth”. The “MTD in US phase I study” value in series [2] (once-daily 21/28-day schedule) is reported as 120 mg; in series [2] (once-daily 28/28-day schedule), 90 mg. Moreover, the “Tumor growth of xenografts” value in series [3] is “suppresses tumor growth”.
